Drawing on patent publication US12157746B2, “Tetrahydro-1H-pyrazino[2,1-a]isoindolylquinoline compounds for the treatment of autoimmune disease” (F. HOFFMANN-LA ROCHE AG, priority 2018, dated 2024), this text covers IC50 for 19 compounds.

The structures appear in SMILES notation. pIC50: −log10 of the molar value.

The target of the assay is T1, human TLR9 (Homo sapiens, UniProt Q9NR96).
T1 sequence (Q9NR96 26-1032): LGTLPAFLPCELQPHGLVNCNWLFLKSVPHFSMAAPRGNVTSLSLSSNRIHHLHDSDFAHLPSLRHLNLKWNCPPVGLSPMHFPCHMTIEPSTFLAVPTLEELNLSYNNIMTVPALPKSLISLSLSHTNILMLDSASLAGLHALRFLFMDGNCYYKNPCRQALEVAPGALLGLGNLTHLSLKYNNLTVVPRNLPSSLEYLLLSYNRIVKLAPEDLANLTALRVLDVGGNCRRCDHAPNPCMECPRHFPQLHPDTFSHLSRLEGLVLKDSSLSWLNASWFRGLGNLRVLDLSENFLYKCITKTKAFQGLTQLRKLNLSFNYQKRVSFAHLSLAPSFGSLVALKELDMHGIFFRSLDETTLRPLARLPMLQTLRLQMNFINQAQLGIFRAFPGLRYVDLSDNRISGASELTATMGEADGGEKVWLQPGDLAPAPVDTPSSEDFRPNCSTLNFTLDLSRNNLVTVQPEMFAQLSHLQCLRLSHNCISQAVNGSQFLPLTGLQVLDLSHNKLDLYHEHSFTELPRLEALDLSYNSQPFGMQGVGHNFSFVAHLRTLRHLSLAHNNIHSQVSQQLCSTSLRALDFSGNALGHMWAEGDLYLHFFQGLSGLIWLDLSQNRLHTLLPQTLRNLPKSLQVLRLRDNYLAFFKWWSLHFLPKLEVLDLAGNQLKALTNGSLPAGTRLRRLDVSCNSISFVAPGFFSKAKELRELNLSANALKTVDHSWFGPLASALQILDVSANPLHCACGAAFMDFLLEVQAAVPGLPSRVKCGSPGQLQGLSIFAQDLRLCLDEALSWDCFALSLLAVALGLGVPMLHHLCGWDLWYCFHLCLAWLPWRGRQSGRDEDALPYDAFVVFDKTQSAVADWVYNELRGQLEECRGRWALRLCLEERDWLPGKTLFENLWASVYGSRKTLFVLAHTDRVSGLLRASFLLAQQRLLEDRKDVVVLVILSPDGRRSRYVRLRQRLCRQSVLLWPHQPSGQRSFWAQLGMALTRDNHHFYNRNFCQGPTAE
The assay can be described thus: HEK293-Blue-hTLR-9 cells assay. Type of assay: cell-based. The settings on record: HEK293-Blue-hTLR9 cells, ODN2006 stimulation, 20 hrs, SEAP reporter; read-out: HEK/hTLR9 IC50. In a few lines: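 Antagonist mode in HEK293-Blue hTLR9 reporter cells (SEAP under NF-κB/AP-1 sites), stimulated with ODN2006 added from a 20 uM solution. Serially diluted compound (1% DMSO final) was incubated 20 hrs at 37° C. Supernatant SEAP was developed with QUANTI-Blue for 2 h at 37° C and read at 620˜655 nm.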
`C[C@@H]1CN(c2ccc(C#N)c3ncccc23)C[C@@H]2c3ccc(N4C[C@H]5CNCCN5C4=O)cc3CN12` [Example 72, 5-[(4R,10bS)-8-[(8aR)-3-oxo-1,5,6,7,8,8a-hexahydroimidazo[1,5-a]pyrazin-2-yl]-4-methyl-3,4,6,10b-tetrahydro-1H-pyrazino[2,1-a]isoindol-2-yl]quinoline-8-carbonitrile]: the pIC50 is 6.97.
With `C[C@@H]1CN(c2ccc(C#N)c3ncccc23)C[C@@H]2c3ccc(N[C@H]4CNCCOC4)cc3CN12` [Example 56B, 5-[(4R,10bS)-4-methyl-8-[[(6S)-1,4-oxazepan-6-yl]amino]-3,4,6,10b-tetrahydro-1H-pyrazino[2,1-a]isoindol-2-yl]quinoline-8-carbonitrile], the pIC50 is 7.04.
For `C[C@@H]1CN(c2ccc(C#N)c3ncsc23)C[C@@H]2c3ccc(N[C@H]4CNC[C@H]4F)cc3CN12` [Example 78, 7-[(4R,10bS)-8-[[(3S,4R)-4-fluoropyrrolidin-3-yl]amino]-4-methyl-3,4,6,10b-tetrahydro-1H-pyrazino[2,1-a]isoindol-2-yl]-1,3-benzothiazole-4-carbonitrile], the pIC50 is 7.08.
The result for `C[C@@H]1CN(c2ccc(C#N)c3ncccc23)C[C@@H]2c3ccc(OC[C@@H]4C[C@H](F)CN4)cc3CN12` [Example 74, 5-[(4R,10bS)-8-[[(2S,4S)-4-fluoropyrrolidin-2-yl]methoxy]-4-methyl-3,4,6,10b-tetrahydro-1H-pyrazino[2,1-a]isoindol-2-yl]quinoline-8-carbonitrile] reads 6.87; that for `C[C@@H]1CN(c2ccc(C#N)c3ncccc23)C[C@@H]2c3ccc(NCC4COCCN4)cc3CN12` (stereo partly drawn) [Example 57, 5-[(4R,10bS)-4-methyl-8-(morpholin-3-ylmethylamino)-3,4,6,10b-tetrahydro-1H-pyrazino[2,1-a]isoindol-2-yl]quinoline-8-carbonitrile], 6.98; that for `C[C@@H]1CN(c2ccc(C#N)c3ncccc23)C[C@@H]2c3ccc(NC[C@H]4CNCCO4)cc3CN12` [Example 59, 5-[(4R,10bS)-4-methyl-8-[[(2R)-morpholin-2-yl]methylamino]-3,4,6,10b-tetrahydro-1H-pyrazino[2,1-a]isoindol-2-yl]quinoline-8-carbonitrile], 7.13.
Consider `C[C@@H]1CN(c2ccc(C(F)(F)F)c3nccnc23)C[C@@H]2c3ccc(N[C@H]4CNC[C@H]4F)cc3CN12` [Example 77, (4R,10bS)—N-[(3S,4R)-4-fluoropyrrolidin-3-yl]-4-methyl-2-[8-(trifluoromethyl)quinoxalin-5-yl]-3,4,6,10b-tetrahydro-1H-pyrazino[2,1-a]isoindol-8-amine], for which the pIC50 was 6.85.
On to `CO[C@H]1CNC[C@@H]1N(C)c1ccc2c(c1)CN1[C@H](C)CN(c3ccc(C#N)c4ncccc34)C[C@H]21` [Example 64, 5-[(4R,10bS)-8-[[(3S,4S)-4-methoxypyrrolidin-3-yl]-methyl-amino]-4-methyl-3,4,6,10b-tetrahydro-1H-pyrazino[2,1-a]isoindol-2-yl]quinoline-8-carbonitrile], for which the pIC50 is 6.90.
In the case of `C[C@@H]1CN(c2ccc(C#N)c3ncccc23)C[C@@H]2c3ccc(NC[C@@H]4CNCCO4)cc3CN12` [Example 58, 5-[(4R,10bS)-4-methyl-8-[[(2S)-morpholin-2-yl]methylamino]-3,4,6,10b-tetrahydro-1H-pyrazino[2,1-a]isoindol-2-yl]quinoline-8-carbonitrile], the pIC50 was 7.07.
As to `C[C@@H]1CN(c2ccc(C#N)c3ncccc23)C[C@@H]2c3ccc(N[C@@H]4CNCCOC4)cc3CN12` [Example 56A, 5-[(4R,10bS)-4-methyl-8-[[(6R)-1,4-oxazepan-6-yl]amino]-3,4,6,10b-tetrahydro-1H-pyrazino[2,1-a]isoindol-2-yl]quinoline-8-carbonitrile], the pIC50 was 7.08.
Turning to `Cc1ccc(N2C[C@@H](C)N3Cc4cc(N[C@H]5CNC[C@H]5F)ccc4[C@H]3C2)c2nccnc12` [Example 76, (4R,10bS)—N-[(3S,4R)-4-fluoropyrrolidin-3-yl]-4-methyl-2-(8-methylquinoxalin-5-yl)-3,4,6,10b-tetrahydro-1H-pyrazino[2,1-a]isoindol-8-amine], the pIC50 is 6.82.
As to `CO[C@H]1CNCC[C@H]1Nc1ccc2c(c1)CN1[C@H](C)CN(c3ccc(C#N)c4ncccc34)C[C@H]21` [Example 66, 5-[(4R,10bS)-8-[[(3S,4R)-3-methoxy-4-piperidyl]amino]-4-methyl-3,4,6,10b-tetrahydro-1H-pyrazino[2,1-a]isoindol-2-yl]quinoline-8-carbonitrile], the pIC50 is 6.85.
In the case of `C[C@@H]1CN(c2ccc(C#N)c3ncccc23)C[C@@H]2c3cc(F)c(N4C[C@H](N)[C@@](C)(O)C4)cc3CN12` [Example 83, 5-[(4R,10bS)-8-[(3S,4S)-4-amino-3-hydroxy-3-methyl-pyrrolidin-1-yl]-9-fluoro-4-methyl-3,4,6,10b-tetrahydro-1H-pyrazino[2,1-a]isoindol-2-yl]quinoline-8-carbonitrile] it was 6.77; in that of `C[C@@H]1CN(c2ccc(C#N)c3ncccc23)C[C@@H]2c3ccc(NC[C@@H]4C[C@H](F)CN4)cc3CN12` [Example 70, 5-[(4R,10bS)-8-[[(2S,4S)-4-fluoropyrrolidin-2-yl]methylamino]-4-methyl-3,4,6,10b-tetrahydro-1H-pyrazino[2,1-a]isoindol-2-yl]quinoline-8-carbonitrile], 7.13.
In the case of `C[C@@H]1CN(c2ccc(C#N)c3ncccc23)C[C@@H]2c3ccc(N4C[C@@H]5CNCCN5C4=O)cc3CN12` [Example 71, 5-[(4R,10bS)-8-[(8aS)-3-oxo-1,5,6,7,8,8a-hexahydroimidazo[1,5-a]pyrazin-2-yl]-4-methyl-3,4,6,10b-tetrahydro-1H-pyrazino[2,1-a]isoindol-2-yl]quinoline-8-carbonitrile] it was 6.94; in that of `CO[C@@H]1CNC[C@H]1Nc1cc2c(cc1C)[C@H]1CN(c3ccc(C#N)c4ncccc34)C[C@@H](C)N1C2` [Example 63, 5-[(4R,10bS)-8-[[(3R,4R)-4-methoxypyrrolidin-3-yl]amino]-4,9-dimethyl-3,4,6,10b-tetrahydro-1H-pyrazino[2,1-a]isoindol-2-yl]quinoline-8-carbonitrile], 7.14.
In the case of `C[C@@H]1CN(c2ccc(C#N)c3ncccc23)C[C@@H]2c3cc(F)c(N4CC5(CNC5)C4)cc3CN12` [Example 84, 5-[(4R,10bS)-8-(2,6-diazaspiro[3.3]heptan-2-yl)-9-fluoro-4-methyl-3,4,6,10b-tetrahydro-1H-pyrazino[2,1-a]isoindol-2-yl]quinoline-8-carbonitrile], the pIC50 is 6.73.
Regarding `[2H]c1ccc2c(N3C[C@@H](C)N4Cc5cc(N6CC7(CNCCO7)C6)ccc5[C@H]4C3)ccc(C#N)c2n1` [Example 90, 5-[(4R,10bS)-4-methyl-8-(5-oxa-2,8-diazaspiro[3.5]nonan-2-yl)-3,4,6,10b-tetrahydro-1H-pyrazino[2,1-a]isoindol-2-yl]-2-deuterio-quinoline-8-carbonitrile], the pIC50 is 6.79.
Regarding `C[C@@H]1CN(c2ccc(C#N)c3ncccc23)C[C@@H]2c3cccc(N[C@H]4CNC[C@H]4F)c3CN12` [Example 81, 5-[(4R,10bS)-7-[[(3S,4R)-4-fluoropyrrolidin-3-yl]amino]-4-methyl-3,4,6,10b-tetrahydro-1H-pyrazino[2,1-a]isoindol-2-yl]quinoline-8-carbonitrile], the pIC50 was 6.90.
